Assay results from patent US20090053302A1, “CANCER TREATMENTS” (priority 2006, published 2009).

Key:
[1] = not given; remark: listed apart in the source
[2] = Toxicity of i.v. doses in mice
[3] = tested on: human breast cancers in mice; experiment: Human breast cancer xenografts in mice, intravenous injections; details: 6 intravenous injections with 4 days intervals; Lipoxal 16 mg/Kg, oxaliplatin at its MTD
[4] = Total platinum in rat plasma after i.p. injection (pharmacokinetics, atomic absorption); details: female, Wistar, in vivo, ip, 15 mg/kg
Experimental: For pharmacokinetic studies 20 Wistar female rats, 2-3 months of age were used of an average body weight of 150 g. […] Two animals per time point were used. […] Blood was collected in heparinized Eppendorf tubes and was centrifuged. Total platinum levels in plasma was determined using furnace Atomic Absorption (AA700 Perkin Elmer).
At various time points postinjection blood was drawn, plasma was isolated and total platinum levels were measured for pharmacokinetic studies.
This was calculated by linear regression analysis of the logarithmic plasma concentration-time curve by the formula Kel=[Ln(Cp1)−Ln(Cp2)]/(t2−t1) where t1 and t2 are the starting and ending time points of measurements and Cp1 and Cp2 the starting and ending concentrations of total platinum in plasma for t1 and t2, respectively.
This was calculated by the formula: t½=0.693 (1/Kel). 1/Kel is the mean residence time (MRT), the statistical moment analogy to half-life t½ (Gibaldi et al, 1982).

[5] = Phase I-II study of Lipoplatin combined with gemcitabine: toxicity, DLT, MTD; format: in vivo, human; details: combined with Lipoplatin 100 mg/m2, every two weeks
Experimental: Patients and Methods: The gemcitabine dose was kept standard at 1000 mg/m2 and the lipoplatin dose was escalated from 25 mg/m2 to 125 mg/m2. The treatment was administered to advanced pretreated pancreatic cancer patients who were refractory to previous chemotherapy which included gemcitabine.
Gemcitabine was given as a 60 min i.v. infusion in 500 ml normal saline on days 1 and 15 at a dose of 1000 mg/m2 and cycles were repeated every 4 weeks (28 days). The infusions on days 1 and 15 were considered to be 1 cycle. […] Prophylactic administration of recombinant human granulocyte colony-stimulating factor (rhG-CSF) was not allowed. In cases of grade 3 neutropenia, these patients would receive subsequent infusions of pegfilgrastim 6 mg, on the 6th or 7th day and treatment would be postponed for one week. Treatment was administered for at least three cycles or until disease progression. The study was a phase I/II cohort, dose escalation trial of Lipoplatin® and gemcitabine. Its aims were to determine the dose limiting toxicity (DLT) of the combination and to define the maximum tolerated dose (MTD) as a recommended dose for phase II and to collect preliminary data on the efficacy of the drug in pretreated patients with pancreatic cancer. […]

[6] = female, Wistar, rat, in vivo, ip, 15 mg/kg
[7] = rats i.p., 15 mg/Kg (estimation) (Lipoplatin 30, cisplatin 5 mg/Kg)
[8] = rats i.p., Lipoplatin 30, cisplatin 5 mg/Kg

Compound: O=C1[O][Pt]2([NH]C3CCCCC3[NH2+]2)[O]C1=O [oxaliplatin, cis-[(1R,2 R)-1,2-cyclohexanediamine-N,N][oxalato(2-)-O,O] platinum]
- Kel, kidney [6]: 0.002 h⁻¹
- time at which the early spleen maximum is reached [6]: 15 to 20 min
- Cl, kidney (rat, in vivo, ip, 15 mg/kg): 0.01 h⁻¹
- final body weight at 7 days (150 g before study) ([1]; 15 mg/Kg i.p.): 109 g
- weight loss of total body weight during 7 days ([1]; 15 mg/kg i.p.): over 40 gr
- Weight of total animal organ: Heart ([1]; 15 mg/kg i.p., 7.8 or 7 days): 0.523 g
- Weight of total animal organ: Kidney ([1]; 15 mg/kg i.p., 7.8 or 7 days): 0.475 g
- Weight of total animal organ: Lung ([1]; 15 mg/kg i.p., 7.8 or 7 days): 0.934 g
- Weight of total animal organ: Spleen ([1]; 15 mg/kg i.p., 7.8 or 7 days): 0.188 g
- weight loss ([1]; 30 mg/Kg i.p., 7 days post-treatment): 33%
- average weight after 7 days (from 150 g) ([1]; 30 mg/Kg i.p., day 7): 100 g
- hepatic toxicity / nephrotoxicity ([1]; rats i.p.): absence of nephrotoxicity
- outcome of mice injected with 5 mg/Kg ([2]; 5 mg/Kg): died of toxicity
- MTD ([2]; mouse, in vivo): 4 mg/kg
- effect on human breast cancers in mice [3]: only cause shrinkage, not disappearance
- time post-injection at which total platinum in plasma reaches zero [4]: ~100 h

Compound: Nc1ccn([C@@H]2O[C@H](CO)[C@@H](O)C2(F)F)c(=O)n1 [gemcitabine]
- MTD of gemcitabine in the combination [5]: 1000 mg/m2

Compound: N.N.[Cl][Pt][Cl] [cisplatin, cis-PtCl2(NH3)2]
- total platinum in liver from 24 to 150 h (rats i.p. 5 mg/Kg): 1
- time at which the liver level is attained (rats i.p., 15 mg/Kg (cisplatin 5 mg/Kg)): 20 min
- total platinum, Heart, 5 h [7]: 0.2 mg Pt/g tissue
- total platinum, Kidney, 5 h [7]: 6.8 mg Pt/g tissue
- total platinum, Liver, 5 h [7]: 2.4 mg Pt/g tissue
- total platinum, Lung, 5 h [7]: 0.7 mg Pt/g tissue
- total platinum, Spleen, 5 h [7]: 1.2 mg Pt/g tissue
- total platinum, Brain, 5-7 days [8]: 0 mg Pt/g tissue
- total platinum, Brain, 5 h [8]: 0.1 mg Pt/g tissue
- total platinum, Brain, maximum (7-20 min) [8]: 0.3 mg Pt/g tissue
- maximum tolerated dose ([1]; rats i.p.): 5 mg/kg
